ChEMBL document CHEMBL1201862, “PubChem BioAssay data set” (2004)
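48-hour exposure; five concentrations; linearly interpolated endpoints. GI50 = concentration required for 50% inhibition of growth.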 Calls of active or inactive are those of the source. No stated cut-off is given here; in the data, active = GI50 up to about 1.1 µM and inactive = higher.

Assays:
Test in all cases: inhibition of tumour cell growth, NCI panel, 48 h
[1] = system: A498
[2] = system: A549
[3] = system: BT-549
[4] = system: CAKI-1
[5] = system: CCRF-CEM
[6] = system: COLO 205
[7] = system: HCC 2998
[8] = system: HCT-116
[9] = system: HCT-15
[10] = system: HOP-62
[11] = system: HOP-92
[12] = system: HT-29
[13] = system: IGROV-1
[14] = system: K562
[15] = system: KM12
[16] = system: MDA-MB-435
[17] = system: MDA-N
[18] = system: MOLT-4
[19] = system: NCI-H23
[20] = system: NCI-H460
[21] = system: NCI-H522
[22] = system: OVCAR-3
[23] = system: OVCAR-4
[24] = system: OVCAR-5
[25] = system: PC-3
[26] = system: RPMI-8226
[27] = system: SF-295
[28] = system: SK-MEL-28
[29] = system: SK-MEL-2
[30] = system: SK-MEL-5
[31] = system: SK-OV-3
[32] = system: SNB-19
[33] = system: SNB-75
[34] = system: SW-620
[35] = system: U-251
[36] = system: UACC-257
[37] = system: UACC-62
[38] = system: UO-31
[39] = system: ACHN
[40] = system: DU-145
[41] = system: EKVX
[42] = system: HL-60
[43] = system: LOX IMVI
[44] = system: MCF7
[45] = system: MDA-MB-231
[46] = system: Malme-3M
[47] = system: NCI-H226
[48] = system: NCI/ADR-RES
[49] = system: OVCAR-8
[50] = system: RXF 393
[51] = system: SF-539
[52] = system: SR
[53] = system: TK-10

Measured: GI50

CC(=O)OC1COC(n2c3ccccc3c3ccc4c5ccccc5[nH]c4c32)C(OC(C)=O)C1OC(C)=O (stereo not given)
inactive: [1] 32.8 µM | [2] 44.8 µM | [3] 89.3 µM | [4] 29.2 µM | [5] 70.3 µM | [6] 39.1 µM | [7] 61.8 µM | [8] 65.9 µM | [10] 22.9 µM | [11] 30.1 µM | [12] 22.3 µM | [15] 17.8 µM | [16] 39.1 µM | [17] 53.3 µM | [18] > 100 µM | [19] 36.8 µM | [20] 21.3 µM | [21] 18.2 µM | [22] 27 µM | [23] 37.6 µM | [24] 23.4 µM | [25] 27.2 µM | [26] 95.7 µM | [27] 15.1 µM | [28] 37.8 µM | [29] 58.1 µM | [30] 36 µM | [31] 18.6 µM | [32] 61.4 µM | [34] 41.2 µM | [35] 29.2 µM | [36] > 100 µM | [37] 67.9 µM | [38] 38.6 µM
active: [13] 0.0512 µM | [14] 0.6 µM | [33] 0.29 µM
70 µM: [9]

C=CCN1C(=O)/C(=C/c2cccs2)N=C1SC1OC(COC(=O)c2ccccc2)C(OC(=O)c2ccccc2)C1OC(=O)c1ccccc1 (stereo not given)
> 100 µM: [9]
inactive: [1] > 100 µM | [39] > 100 µM | [3] > 100 µM | [4] > 100 µM | [5] 53.5 µM | [6] > 100 µM | [40] > 100 µM | [41] > 100 µM | [7] > 100 µM | [42] > 100 µM | [10] > 100 µM | [11] > 100 µM | [13] > 100 µM | [14] > 100 µM | [15] > 100 µM | [43] > 100 µM | [44] 36.6 µM | [45] > 100 µM | [16] > 100 µM | [18] > 100 µM | [46] > 100 µM | [47] > 100 µM | [19] > 100 µM | [20] > 100 µM | [21] 11.4 µM | [48] > 100 µM | [22] > 100 µM | [23] > 100 µM | [24] > 100 µM | [49] > 100 µM | [25] > 100 µM | [26] 22.4 µM | [50] > 100 µM | [27] > 100 µM | [51] > 100 µM | [28] > 100 µM | [29] > 100 µM | [30] > 100 µM | [31] > 100 µM | [33] > 100 µM | [52] > 100 µM | [34] > 100 µM | [53] > 100 µM | [35] > 100 µM | [36] > 100 µM | [37] > 100 µM
